Columns and labels:
[1] = test system: normal human astrocytes; assay: Caspase 3/7 activity, human astrocytes; assay type: cell-based; conditions: 100 μM, 2 days
Description: (§1) Cells were plated in 96-well plates (2000–5000 cells per well) and treated the following day with TMZ (10, 50, or 100 μM), antennapedia, JM2-scrambled, or JM2 (10, 50, or 100 μM). After 4 days, cell viability was monitored following addition of MTS reagent (Promega) according to manufacturer’s instructions. The absorbance at 490 nm was measured using a SpectraMax i3 or iD3 microplate reader (Molecular Devices). For the caspase 3/7 activity assay, cells were plated in 96-well plates (2000 cells per well) and treated with TMZ or peptides as described above. The activity of caspase 3/7 was measured after 48 h using the Caspase-Glo® 3/7 assay (Promega) following the manufacturer’s instructions. Fold change of caspase 3/7 activity was defined as the ratio of caspase 3/7 luminescence in treated cells compared to controls.

[2] = test system: VTC-034 GSCs; assay: MTS viability, VTC-034 GSCs; assay type: cell-based, human; conditions: VTC-034 adherent GSCs, 10, 50 or 100 μM, 4 days
Description: as §1

[3] = test system: Cx43/α-tubulin interaction; assay: Co-immunoprecipitation with α-tubulin antibody: Cx43 interaction with α-tubulin; assay type: cell-based, human; conditions: VTC-037 GSCs, 50 μM, 24 h, cross-linked (DTBP)
Description: Prior to lysis, cross-linking was completed by incubating cells in DTBP (dimethyl 3,3’-dithiobispropionimidate; 2 mM in PBS) for 30 min at 37 °C followed by a glycine quench (100 mM glycine in PBS) for 15 min at room temperature. Cross-linked samples were lysed in RIPA buffer supplemented with Halt^TM Protease and Phosphatase Inhibitor Cocktail as described above, but without sonication. Co-immunoprecipitation (co-IP) assays were also performed without cross-linking; non-cross-linked samples were lysed using a co-IP lysis buffer (0.5% Triton X-100, 50 mM Tris HCl, 150 mM NaCl, 1 mM EDTA, 1 mM EGTA, 1 mM DTT, 0.1 mM Na3VO4, and 1 mM NaF) supplemented with Halt^TM Protease and Phosphatase Inhibitor Cocktail, without sonication. Protein concentration was quantified using the DC protein assay and a standard curve obtained with increasing concentrations of BSA, and 500 μg of total protein was used per reaction for co-IP. Inputs were removed prior to co-IP and denatured in Bolt LDS sample buffer as described above. Remaining protein lysates were incubated with Protein G Sepharose^TM 4 Fast Flow beads (GE Healthcare) for pre-clearance for 30 min at 4 °C. Samples were incubated with 2 μg of mouse anti-α-tubulin (MilliporeSigma, T6199) for cross-linked samples or mouse anti-Cx43 antibody (EMD Millipore; MAB3067) for non-cross-linked samples for 90 min at 4 °C. […]

[4] = test system: VTC-001 GSCs; assay: Limiting dilution analysis (ELDA), VTC-001 GSCs; assay type: cell-based, human; conditions: VTC-001, 100 μM every other day, 2 weeks; compared to JM2-scrambled or control
Description: GSCs and PDX GBM22 cells were plated as single cell suspension in low-attachment 96-well plates (GSCs: 100–500 cells per well; GBM22 cells: 500–2000 cells per well), using methods similar to those reported previously. Cells were then treated with peptides every other day. 2 weeks later, gliospheres were observed using phase contrast microscopy on a Revolve microscope (Echo Laboratories). The number of gliospheres was then determined, while the gliosphere size was assessed by diameter measurement. To evaluate stem cell frequency in GSCs, gliosphere formation assay was performed with limiting cell dilutions with cells plated at varying densities in low-attachment 96-well plates. Cells were treated with peptides every other day, and after 2 weeks, gliosphere-positive wells were observed and scored using phase contrast microscopy on a Revolve microscope. The stem cell frequency was analyzed using the online data analysis program ELDA (Extreme Limiting Dilution Analysis).
All quantification was performed on experiments repeated at least three times. Statistical analysis was conducted with GraphPad Prism (GraphPad Software). Data were analyzed for significance using Student’s t test, one-way ANOVA with Tukey’s multiple comparisons test, and presented as mean ± SD. […] Statistical significance between experimental groups was determined using chi-square (χ²) tests within the ELDA framework. […]

Q: Which results are given for VFFKGVKDRVKGRSD [JM2]?
A: Caspase 3/7 activity in normal human astrocytes [1]: No effect on caspase 3/7; GSC survival (MTS) [2]: significantly decreased VTC-001, VTC-034, and VTC-037 GSC survival when cultured as adherent cells in a dose-dependent manner; Cx43 interaction with α-tubulin (co-IP) [3]: decrease in Cx43 interaction with α-tubulin; GSC frequency / self-renewal (limiting dilution) [4]: significant decrease in VTC-001, VTC-034, and VTC-037 GSC frequency
